A word on the EC50: it is the concentration at which the effect is half-maximal.

The target of test [1] is T1, type 1 ryanodine receptor (RyR1) (Oryctolagus cuniculus, UniProt P11716). The experiment in a line: intracellular calcium assay in HEK […] stable cell lines; selective over M4000F, RyR2, RyR3. The format is cell-based. Further details: full-length rabbit RyR1(WT). (A change in cytosolic calcium serves as a functional read-out for many receptors and channels.)
The target in test [2] is T1, type 1 ryanodine receptor (RyR1). Nature of the test: intracellular calcium assay in HEK […] stable cell line; compared with M4000F. In kind it is cell-based. Also noted: full-length rabbit RyR1(WT).
Test [3] shares this target. The experiment in a line: intracellular calcium assay in HEK […] cells with RyR1 WT and point mutants. In kind it is cell-based. Further details: full-length rabbit RyR1.
The target is the same in test [4]. The experiment in a line: cell-based. Also noted: full-length rabbit RyR1; species or system HEK 293; fluorescent calcium indicator assay, peak Fmax/F0, tetracycline-induced RyR1 expression, 384-well plate. Here is the method:
There are three isoforms of RyRs in mammals (RyR1, RyR2, and RyR3). To systematically examine the pharmacological properties of each isoform, we used HEK 293 cell lines that express rabbit isoforms under tetracycline regulation. These cells were seeded in a 384-well plate and subjected to an assay in which the intracellular calcium levels were measured using a fluorescent calcium indicator upon drug administration (Fig 1B and 1C). While caffeine is a stimulant that antagonizes the adenosine receptors (IC50s on adenosine receptors are ~10 μM), it is also a typical agonist of RyRs activating all isoforms at higher dosages. Caffeine administration caused dose-dependent increases in intracellular calcium levels depending on the tetracycline-mediated expression of each isoform (Figs 1D–1F and S1A). We observed that, while caffeine causes calcium elevation in the nonexpressed controls, most likely due to the presence of endogenous RyRs in HEK 293 cells, the distinct signals in the expressed conditions indicate that each isoform is successfully expressed as functional channels. Supplementary file pbio.3003172.s001.pdf: S1 Fig Increased intracellular calcium by isoflurane is derived from intracellular calcium stores. […] Each agent was given after measuring the baseline fluorescence for 10 s, as indicated by arrows. […]

Test [5] has the same target. The experiment in a line: intracellular calcium assay in HEK […] cells; selectivity over M4000F. In kind it is cell-based. Also noted: full-length rabbit RyR1.
Test [6] shares this target. Nature of the test: intracellular calcium assay in HEK […] cells; caffeine-site point mutants. The format is cell-based. Further details: full-length rabbit RyR1.
Test [7] has the same target. The experiment in a line: intracellular calcium assay in HEK […] stable cell line. The format is cell-based. Further details: full-length rabbit RyR1.
In test [8] the target is T2, mouse RyR1(WT) (Mus musculus, UniProt E9PZQ0).
T2 construct: full-length mouse RyR1
Nature of the test: intracellular calcium assay in HEK […] cells; response lost in M4003F. In kind it is cell-based.

The target of test [9] is T1, type 1 ryanodine receptor (RyR1). The experiment in a line: intracellular calcium (Cal-520) assay in HEK […] cells with tetracycline-induced RyR1; chimeras and point mutants. Further details: full-length rabbit RyR1; RyR1 Q3889-S4213 necessary and sufficient for the response. The format is cell-based.
Test [10] has the same target. Nature of the test: intracellular calcium assay in HEK […] stable cell line; response lost in M4000F. The format is cell-based. Further details: full-length rabbit RyR1.

T1 sequence (P11716 whole entry): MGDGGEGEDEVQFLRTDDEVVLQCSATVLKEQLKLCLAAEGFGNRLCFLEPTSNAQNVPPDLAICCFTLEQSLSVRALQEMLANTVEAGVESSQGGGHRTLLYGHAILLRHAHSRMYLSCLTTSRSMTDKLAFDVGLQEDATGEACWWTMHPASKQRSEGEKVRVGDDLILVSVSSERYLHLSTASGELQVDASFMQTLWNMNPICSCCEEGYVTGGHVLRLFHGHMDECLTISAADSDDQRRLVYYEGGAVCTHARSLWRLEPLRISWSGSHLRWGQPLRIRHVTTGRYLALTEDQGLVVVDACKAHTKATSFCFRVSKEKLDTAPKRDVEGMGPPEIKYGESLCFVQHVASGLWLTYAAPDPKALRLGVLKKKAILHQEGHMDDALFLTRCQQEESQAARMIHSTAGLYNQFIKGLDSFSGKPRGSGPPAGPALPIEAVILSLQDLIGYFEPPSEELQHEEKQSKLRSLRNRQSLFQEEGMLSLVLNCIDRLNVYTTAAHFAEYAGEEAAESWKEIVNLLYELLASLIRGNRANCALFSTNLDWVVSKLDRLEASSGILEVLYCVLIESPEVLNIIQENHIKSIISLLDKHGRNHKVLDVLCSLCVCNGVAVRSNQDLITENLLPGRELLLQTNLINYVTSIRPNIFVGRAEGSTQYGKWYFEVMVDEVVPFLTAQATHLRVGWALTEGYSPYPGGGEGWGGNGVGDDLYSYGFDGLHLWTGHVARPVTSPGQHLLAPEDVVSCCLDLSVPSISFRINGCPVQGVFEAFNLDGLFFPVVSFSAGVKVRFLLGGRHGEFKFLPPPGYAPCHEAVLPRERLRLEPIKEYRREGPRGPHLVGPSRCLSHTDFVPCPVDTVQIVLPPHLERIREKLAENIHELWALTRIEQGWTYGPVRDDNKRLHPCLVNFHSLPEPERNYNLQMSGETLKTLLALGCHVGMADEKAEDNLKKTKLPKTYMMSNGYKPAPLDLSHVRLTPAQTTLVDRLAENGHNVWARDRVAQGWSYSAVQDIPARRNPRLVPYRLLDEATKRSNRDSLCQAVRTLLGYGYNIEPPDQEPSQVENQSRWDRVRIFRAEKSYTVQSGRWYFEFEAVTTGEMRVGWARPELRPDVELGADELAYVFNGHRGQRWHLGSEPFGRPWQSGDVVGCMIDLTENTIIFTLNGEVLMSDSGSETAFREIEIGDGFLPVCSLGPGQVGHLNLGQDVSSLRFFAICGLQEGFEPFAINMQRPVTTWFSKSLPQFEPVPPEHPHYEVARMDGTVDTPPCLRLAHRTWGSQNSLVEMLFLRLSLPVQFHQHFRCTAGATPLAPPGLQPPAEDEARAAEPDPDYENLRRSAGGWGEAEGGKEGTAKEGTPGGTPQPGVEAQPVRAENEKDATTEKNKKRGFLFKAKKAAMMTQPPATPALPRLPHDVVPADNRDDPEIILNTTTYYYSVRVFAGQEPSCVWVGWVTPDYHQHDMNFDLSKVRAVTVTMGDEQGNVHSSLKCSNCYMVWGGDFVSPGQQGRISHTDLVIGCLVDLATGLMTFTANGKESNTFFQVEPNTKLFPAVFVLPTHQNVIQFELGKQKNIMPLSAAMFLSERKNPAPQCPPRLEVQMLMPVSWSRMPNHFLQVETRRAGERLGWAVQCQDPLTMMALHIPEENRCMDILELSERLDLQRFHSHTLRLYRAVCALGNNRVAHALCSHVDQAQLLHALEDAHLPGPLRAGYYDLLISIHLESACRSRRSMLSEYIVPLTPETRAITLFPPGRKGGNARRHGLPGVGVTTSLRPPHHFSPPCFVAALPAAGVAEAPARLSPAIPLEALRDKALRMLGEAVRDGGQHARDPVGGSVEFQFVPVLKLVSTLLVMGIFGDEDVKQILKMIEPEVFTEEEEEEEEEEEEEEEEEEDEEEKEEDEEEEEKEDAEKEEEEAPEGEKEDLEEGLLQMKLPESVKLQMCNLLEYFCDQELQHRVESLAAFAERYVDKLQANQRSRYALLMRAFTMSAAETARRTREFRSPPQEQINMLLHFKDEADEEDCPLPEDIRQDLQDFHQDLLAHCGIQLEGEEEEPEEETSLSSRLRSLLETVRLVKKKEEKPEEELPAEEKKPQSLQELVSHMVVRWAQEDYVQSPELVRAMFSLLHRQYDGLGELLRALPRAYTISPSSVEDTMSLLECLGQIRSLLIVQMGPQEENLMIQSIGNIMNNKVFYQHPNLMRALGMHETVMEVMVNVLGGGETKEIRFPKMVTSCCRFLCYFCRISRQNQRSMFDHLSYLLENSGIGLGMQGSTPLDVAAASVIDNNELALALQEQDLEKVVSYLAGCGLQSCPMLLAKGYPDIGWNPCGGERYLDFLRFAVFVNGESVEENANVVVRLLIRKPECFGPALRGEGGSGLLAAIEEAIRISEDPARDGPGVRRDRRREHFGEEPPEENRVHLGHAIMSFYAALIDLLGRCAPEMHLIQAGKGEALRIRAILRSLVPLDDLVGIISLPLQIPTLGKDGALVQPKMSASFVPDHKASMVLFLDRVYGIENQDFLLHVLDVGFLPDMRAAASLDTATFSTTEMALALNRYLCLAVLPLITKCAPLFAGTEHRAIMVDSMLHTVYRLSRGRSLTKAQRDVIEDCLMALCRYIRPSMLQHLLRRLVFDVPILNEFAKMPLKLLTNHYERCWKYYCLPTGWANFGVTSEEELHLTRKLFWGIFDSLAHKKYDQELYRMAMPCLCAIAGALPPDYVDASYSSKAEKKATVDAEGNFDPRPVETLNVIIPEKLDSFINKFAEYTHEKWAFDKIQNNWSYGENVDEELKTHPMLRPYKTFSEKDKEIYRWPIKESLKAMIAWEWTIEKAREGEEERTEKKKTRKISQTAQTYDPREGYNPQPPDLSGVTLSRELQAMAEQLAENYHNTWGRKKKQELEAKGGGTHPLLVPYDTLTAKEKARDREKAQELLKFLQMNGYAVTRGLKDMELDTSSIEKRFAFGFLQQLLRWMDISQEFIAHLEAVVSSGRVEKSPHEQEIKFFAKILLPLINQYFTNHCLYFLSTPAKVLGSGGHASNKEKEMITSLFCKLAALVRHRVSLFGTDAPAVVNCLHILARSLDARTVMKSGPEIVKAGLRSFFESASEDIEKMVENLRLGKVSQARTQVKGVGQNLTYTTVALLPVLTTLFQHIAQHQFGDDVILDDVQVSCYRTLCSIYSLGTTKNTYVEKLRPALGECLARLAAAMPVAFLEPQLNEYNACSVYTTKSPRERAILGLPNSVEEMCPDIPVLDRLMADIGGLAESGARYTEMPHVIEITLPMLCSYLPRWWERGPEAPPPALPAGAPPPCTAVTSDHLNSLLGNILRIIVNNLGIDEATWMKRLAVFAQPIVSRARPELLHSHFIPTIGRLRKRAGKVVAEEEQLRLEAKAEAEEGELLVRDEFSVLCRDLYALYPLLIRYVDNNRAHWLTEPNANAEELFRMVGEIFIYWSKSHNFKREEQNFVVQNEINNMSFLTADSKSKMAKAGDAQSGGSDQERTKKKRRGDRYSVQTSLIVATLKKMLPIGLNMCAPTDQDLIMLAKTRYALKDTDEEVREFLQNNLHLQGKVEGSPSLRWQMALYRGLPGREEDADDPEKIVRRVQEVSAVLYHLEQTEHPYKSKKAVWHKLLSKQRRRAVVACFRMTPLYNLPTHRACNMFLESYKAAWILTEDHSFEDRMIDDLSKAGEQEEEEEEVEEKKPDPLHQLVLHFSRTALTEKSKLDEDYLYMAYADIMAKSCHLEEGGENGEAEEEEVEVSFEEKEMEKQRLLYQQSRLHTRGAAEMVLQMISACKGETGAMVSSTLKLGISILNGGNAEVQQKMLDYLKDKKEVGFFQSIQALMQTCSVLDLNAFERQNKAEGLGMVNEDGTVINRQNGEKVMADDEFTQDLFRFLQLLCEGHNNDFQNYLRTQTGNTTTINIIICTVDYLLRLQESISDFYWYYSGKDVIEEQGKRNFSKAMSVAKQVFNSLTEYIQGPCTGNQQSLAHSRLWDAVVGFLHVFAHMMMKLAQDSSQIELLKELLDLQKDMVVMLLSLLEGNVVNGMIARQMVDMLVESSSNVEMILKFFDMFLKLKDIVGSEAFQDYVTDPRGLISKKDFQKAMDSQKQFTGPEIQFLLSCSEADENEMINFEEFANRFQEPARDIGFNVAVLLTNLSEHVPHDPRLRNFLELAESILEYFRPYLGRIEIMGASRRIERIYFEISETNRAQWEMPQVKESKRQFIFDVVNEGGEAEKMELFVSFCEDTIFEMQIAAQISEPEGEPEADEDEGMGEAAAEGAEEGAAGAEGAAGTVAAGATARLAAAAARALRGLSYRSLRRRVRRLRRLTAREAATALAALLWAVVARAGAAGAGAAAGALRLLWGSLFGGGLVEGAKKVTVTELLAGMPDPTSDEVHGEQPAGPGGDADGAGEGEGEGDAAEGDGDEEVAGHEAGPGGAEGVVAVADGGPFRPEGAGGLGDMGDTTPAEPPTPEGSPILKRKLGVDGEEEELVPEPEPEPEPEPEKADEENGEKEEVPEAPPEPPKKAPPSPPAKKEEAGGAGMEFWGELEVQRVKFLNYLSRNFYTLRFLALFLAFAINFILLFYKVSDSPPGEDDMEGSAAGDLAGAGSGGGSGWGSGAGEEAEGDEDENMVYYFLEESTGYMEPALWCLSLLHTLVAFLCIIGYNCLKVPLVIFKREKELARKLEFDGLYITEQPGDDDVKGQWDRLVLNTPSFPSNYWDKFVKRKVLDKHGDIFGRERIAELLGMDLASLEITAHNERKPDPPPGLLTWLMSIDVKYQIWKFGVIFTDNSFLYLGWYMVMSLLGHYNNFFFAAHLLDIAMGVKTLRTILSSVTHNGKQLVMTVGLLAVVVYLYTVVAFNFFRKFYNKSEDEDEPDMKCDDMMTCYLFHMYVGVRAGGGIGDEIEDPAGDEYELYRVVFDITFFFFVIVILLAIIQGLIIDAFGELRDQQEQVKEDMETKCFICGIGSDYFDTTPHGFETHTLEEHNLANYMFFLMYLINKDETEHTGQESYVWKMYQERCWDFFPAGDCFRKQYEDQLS

On to `Oc1cccc(Br)c1` [3-BP, 3-bromophenol], for which the “intracellular calcium assay in HEK 293 stable cell lines; selective over M4000F,” value in [1] was 3-bromophenol (3-BP) has higher selectivity for RyR1(WT) than RyR1(M4000F), RyR2, or RyR3.
Take `Oc1ccc(Br)cc1` [4-BP, 4-bromophenol]: in test [2], the EC50 came to 4.7 µM.
With `Cc1cc(O)ccc1Cl` [4-CmC, 4-chloro-m-cresol], the “intracellular calcium assay in HEK 293T cells with RyR1 WT and point mutants” value in test [3] is “substitution of phenylalanine with alanine (F4062A) substantially reduced the sensitivities to both 4-CmC and isoflurane”.
Take `CCc1ccc(O)cc1` [4-EP, 4-ethylphenol]: in test [4], the EC50 worked out at 24 µM.
For the compound `Cc1ccc(O)cc1` [4-MP, 4-methylphenol], the EC50 in test [4] was found to be 31 µM. Besides, the “intracellular calcium assay in HEK 293 cells; selectivity over M4000F” value in test [5] was 4-methylphenol (4-MP) and 4-ethylphenol (4-EP), phenolic chemicals with a methyl or ethyl residue.
Turning to `Cn1c(=O)c2c(ncn2C)n(C)c1=O` [caffeine], in test [6], the “intracellular calcium assay in HEK 293 cells; caffeine-site point mutants” value is “RyR1(W4716I), RyR1(W4716L), and RyR1(F3753A) were insensitive to caffeine but were activated by isoflurane”.
Regarding `FC(F)(F)C(Cl)Br` (centres unmarked) [halothane], the EC50 in [7] stood at 288 µM.
Regarding `FC(F)OC(Cl)C(F)(F)F` (centres unmarked) [isoflurane], in test [8], the “intracellular calcium assay in HEK 293 cells; response lost in M4003F” value is “mouse RyR1(WT) was sensitive to isoflurane, as expected, whereas mouse RyR1(M4003F) was not activated by isoflurane”. The EC50 in [9] amounted to 203 µM.
For `FCOC(C(F)(F)F)C(F)(F)F` [sevoflurane], in test [10], the “intracellular calcium assay in HEK 293 stable cell line; response lost in M4000F” value was “sevoflurane, an inhaled anesthetic with clinical use, activated RyR1 but not RyR2 and RyR3”.

(Values after article PMC12132946, “Isoflurane activates the type 1 ryanodine receptor to induce anesthesia in mice” (PLOS Biology, 2025).)
